In patent publication US11572369B2, “Bicyclic pyridine compositions and methods of using the same for cancer therapy” (UNIVERSITY OF SOUTH CAROLINA, priority 2019, dated 2023):

What was measured:
Experiment in all cases: KINOMEscan
Assay type in all cases: binding
Details in all cases: 2000 nM
[1] = target: LZK (Homo sapiens, UniProt O43283)
[2] = target: T1, RSK4(Kin.Dom.1-N-terminal) (Homo sapiens, UniProt Q9UK32)
T1 construct: RSK4(Kin.Dom.1); purchased DiscoveRx (KINOMEscan scanMAX panel)

[3] = target: T2, FLT4 (Homo sapiens, UniProt P35916)
T2 construct: purchased KINOMEscan (DiscoveRx)

[4] = target: T3, RSK1(Kin.Dom.1-N-terminal) (Homo sapiens, UniProt Q15418)
T3 construct: RSK1(Kin.Dom.1); purchased DiscoveRx (KINOMEscan scanMAX panel)
T3 sequence (Q15418 62-321 limits assumed): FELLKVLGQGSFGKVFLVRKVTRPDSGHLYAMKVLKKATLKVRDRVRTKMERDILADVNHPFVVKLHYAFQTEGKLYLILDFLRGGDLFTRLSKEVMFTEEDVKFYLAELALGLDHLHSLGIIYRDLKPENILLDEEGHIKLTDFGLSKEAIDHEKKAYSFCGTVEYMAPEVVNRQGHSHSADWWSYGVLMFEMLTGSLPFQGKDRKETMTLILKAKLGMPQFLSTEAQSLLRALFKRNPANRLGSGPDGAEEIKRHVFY

[5] = target: T4, NDR1 (Homo sapiens, UniProt Q15208)
T4 construct: DNA label (for qPCR read-out); purchased KINOMEscan scanMAX panel (DiscoveRx)

[6] = target: T5, EPHA8 (Homo sapiens, UniProt P29322)
T5 construct: purchased DiscoveRx (KINOMEscan scanMAX panel)

[7] = target: T6, FGFR2 (Homo sapiens, UniProt P21802)
T6 construct: purchased DiscoveRx (KINOMEscan scanMAX panel)

[8] = target: T7, VEGFR2 (Homo sapiens, UniProt P35968)
T7 construct: DNA label (for qPCR read-out); purchased DiscoveRx (KINOMEscan scanMAX panel)

[9] = target: T8, PIK3CA(M1043I) (Homo sapiens, UniProt P42336, M1043I)
T8 construct: DNA label; purchased DiscoveRx (KINOMEscan scanMAX panel)

[10] = target: T9, ERBB3 (Homo sapiens, UniProt P21860)
T9 construct: DNA label (qPCR read-out); purchased DiscoveRx (KINOMEscan ScanMAX panel)

[11] = target: T10, DDR2 (Homo sapiens, UniProt Q16832)
T10 construct: DNA label (qPCR read-out); purchased KINOMEscan (DiscoveRx) panel

[12] = target: T11, ERN1 (Homo sapiens, UniProt O75460)
T11 construct: DNA label (qPCR read-out); purchased DiscoveRx (KINOMEscan ScanMAX panel)

[13] = target: T12, MET (Homo sapiens, UniProt P08581)
T12 construct: purchased DiscoveRx (KINOMEscan scanMAX panel, service)

[14] = target: T13, KIT(D816V) (Homo sapiens, UniProt P10721, D816V)
T13 construct: DNA label (for qPCR read-out); purchased DiscoveRx (KINOMEscan scanMAX panel)

[15] = target: T14, ERBB2 (Homo sapiens, UniProt P04626)
T14 construct: DNA label (qPCR read-out); purchased DiscoveRx (KINOMEscan ScanMAX panel)

[16] = target: ABL1-nonphosphorylated (Homo sapiens, UniProt P00519)
[17] = target: T15, p38-delta (Homo sapiens, UniProt O15264)
T15 construct: purchased DiscoverX (KINOMEscan service)

[18] = target: T16, ACVR1B (Homo sapiens, UniProt P36896)
T16 construct: purchased DiscoveRx (KINOMEscan scanMAX panel, service)
T16 sequence (P36896 24-505): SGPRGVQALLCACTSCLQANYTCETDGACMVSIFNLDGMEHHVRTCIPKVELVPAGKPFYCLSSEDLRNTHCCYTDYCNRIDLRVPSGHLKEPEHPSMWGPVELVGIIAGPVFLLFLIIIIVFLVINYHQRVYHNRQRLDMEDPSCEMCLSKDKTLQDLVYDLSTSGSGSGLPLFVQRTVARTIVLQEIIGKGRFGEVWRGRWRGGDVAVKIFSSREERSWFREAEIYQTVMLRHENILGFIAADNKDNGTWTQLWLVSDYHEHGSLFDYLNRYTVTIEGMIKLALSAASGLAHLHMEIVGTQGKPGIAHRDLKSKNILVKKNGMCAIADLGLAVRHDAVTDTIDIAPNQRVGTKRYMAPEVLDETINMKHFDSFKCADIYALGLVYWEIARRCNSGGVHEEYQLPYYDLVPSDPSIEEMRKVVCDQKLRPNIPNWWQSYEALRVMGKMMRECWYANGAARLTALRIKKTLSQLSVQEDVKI

[19] = target: T17, DCAMKL3 (Homo sapiens, UniProt Q9C098)
T17 construct: DNA label (qPCR read-out); purchased KINOMEscan (DiscoveRx) panel

[20] = target: T18, CDK5 (Homo sapiens, UniProt Q00535)
T18 construct: purchased DiscoverX (KINOMEscan service)

[21] = target: T19, VRK2 (Homo sapiens, UniProt Q86Y07)
T19 construct: purchased KINOMEscan (DiscoveRx) panel service

[22] = target: T20, BRSK2 (Homo sapiens, UniProt Q8IWQ3)
T20 construct: DNA label (for qPCR read-out); purchased KINOMEscan scanMAX panel (DiscoveRx)
T20 sequence (Q8IWQ3 whole entry): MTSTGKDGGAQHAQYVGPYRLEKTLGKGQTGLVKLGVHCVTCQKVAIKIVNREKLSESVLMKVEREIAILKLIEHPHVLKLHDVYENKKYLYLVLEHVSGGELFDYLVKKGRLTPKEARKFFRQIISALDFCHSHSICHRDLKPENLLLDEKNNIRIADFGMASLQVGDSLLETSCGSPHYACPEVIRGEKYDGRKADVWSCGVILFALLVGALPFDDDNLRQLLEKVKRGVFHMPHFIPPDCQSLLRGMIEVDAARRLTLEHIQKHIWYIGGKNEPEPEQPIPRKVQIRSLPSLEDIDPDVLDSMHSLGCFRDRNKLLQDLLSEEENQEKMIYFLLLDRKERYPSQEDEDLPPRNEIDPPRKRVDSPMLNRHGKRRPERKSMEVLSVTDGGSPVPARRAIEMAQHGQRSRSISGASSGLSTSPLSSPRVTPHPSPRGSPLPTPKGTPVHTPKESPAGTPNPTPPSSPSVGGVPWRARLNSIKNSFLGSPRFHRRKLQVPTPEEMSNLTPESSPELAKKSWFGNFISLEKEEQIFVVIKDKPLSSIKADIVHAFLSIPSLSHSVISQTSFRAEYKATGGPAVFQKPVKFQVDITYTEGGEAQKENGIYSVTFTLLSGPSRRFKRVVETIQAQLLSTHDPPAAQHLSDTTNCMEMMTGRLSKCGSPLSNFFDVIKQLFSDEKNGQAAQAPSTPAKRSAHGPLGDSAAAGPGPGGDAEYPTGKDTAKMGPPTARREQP

[23] = target: T21, ERK2 (Homo sapiens, UniProt P28482)
T21 construct: DNA label (qPCR read-out); purchased DiscoveRx (KINOMEscan ScanMAX panel)

[24] = target: T22, PRKCD (Homo sapiens, UniProt Q05655)
T22 construct: purchased DiscoveRx (KINOMEscan scanMAX panel)

[25] = target: T23, NEK3 (Homo sapiens, UniProt P51956)
T23 construct: DNA label (qPCR read-out); purchased KINOMEscan (ScanMAX panel service)
T23 sequence (P51956 whole entry): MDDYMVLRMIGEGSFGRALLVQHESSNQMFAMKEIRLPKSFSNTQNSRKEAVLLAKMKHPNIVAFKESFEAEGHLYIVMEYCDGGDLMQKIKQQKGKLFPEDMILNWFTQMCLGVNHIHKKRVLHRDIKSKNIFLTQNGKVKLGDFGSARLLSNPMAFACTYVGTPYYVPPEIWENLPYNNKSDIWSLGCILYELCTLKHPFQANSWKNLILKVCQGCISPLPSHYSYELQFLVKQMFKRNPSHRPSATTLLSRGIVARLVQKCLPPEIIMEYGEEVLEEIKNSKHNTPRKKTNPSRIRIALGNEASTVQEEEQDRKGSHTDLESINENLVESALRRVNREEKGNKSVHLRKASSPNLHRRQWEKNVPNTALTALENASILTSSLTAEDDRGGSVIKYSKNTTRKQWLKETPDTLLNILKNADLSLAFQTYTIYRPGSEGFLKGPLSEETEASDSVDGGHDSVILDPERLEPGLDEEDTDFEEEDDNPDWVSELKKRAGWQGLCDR

[26] = target: T24, PLK4 (Homo sapiens, UniProt O00444)
T24 construct: purchased DiscoveRx (KINOMEscan scanMAX panel)

[27] = target: T25, CDC2L1 (Homo sapiens, UniProt P21127)
T25 construct: DNA label (qPCR read-out); purchased KINOMEscan (ScanMAX panel service)
T25 sequence (P21127 whole entry): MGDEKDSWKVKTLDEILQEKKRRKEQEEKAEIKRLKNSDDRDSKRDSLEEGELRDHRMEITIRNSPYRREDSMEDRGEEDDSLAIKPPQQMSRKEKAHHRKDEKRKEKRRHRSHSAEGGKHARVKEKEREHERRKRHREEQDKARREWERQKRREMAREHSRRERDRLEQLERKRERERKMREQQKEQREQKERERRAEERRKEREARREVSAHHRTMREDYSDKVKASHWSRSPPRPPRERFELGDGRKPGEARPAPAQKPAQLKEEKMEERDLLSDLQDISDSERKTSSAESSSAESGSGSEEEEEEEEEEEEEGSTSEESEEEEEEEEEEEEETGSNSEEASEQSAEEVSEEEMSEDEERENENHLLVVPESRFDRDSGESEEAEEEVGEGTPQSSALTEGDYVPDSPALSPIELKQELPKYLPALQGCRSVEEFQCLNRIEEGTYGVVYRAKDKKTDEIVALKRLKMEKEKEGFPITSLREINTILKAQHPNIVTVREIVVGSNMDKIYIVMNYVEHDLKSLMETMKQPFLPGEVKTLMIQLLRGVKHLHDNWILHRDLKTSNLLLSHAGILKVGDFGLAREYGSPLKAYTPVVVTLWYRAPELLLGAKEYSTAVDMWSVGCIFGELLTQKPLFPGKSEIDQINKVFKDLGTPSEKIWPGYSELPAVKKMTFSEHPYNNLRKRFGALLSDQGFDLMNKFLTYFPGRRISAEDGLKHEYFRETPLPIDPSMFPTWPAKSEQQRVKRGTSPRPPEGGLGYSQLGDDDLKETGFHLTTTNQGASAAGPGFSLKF

[28] = target: T26, PRKX (Homo sapiens, UniProt P51817)
T26 construct: purchased DiscoveRx (KINOMEscan scanMAX panel)

[29] = target: T27, CSF1R-autoinhibited (Homo sapiens, UniProt P07333)
T27 construct: DNA label (for qPCR read-out); purchased DiscoveRx (KINOMEscan scanMAX service)

[30] = target: T28, MUSK (Homo sapiens, UniProt O15146)
T28 construct: DNA label (for qPCR read-out); purchased KINOMEscan scanMAX panel (DiscoveRx)
T28 sequence (O15146 24-869): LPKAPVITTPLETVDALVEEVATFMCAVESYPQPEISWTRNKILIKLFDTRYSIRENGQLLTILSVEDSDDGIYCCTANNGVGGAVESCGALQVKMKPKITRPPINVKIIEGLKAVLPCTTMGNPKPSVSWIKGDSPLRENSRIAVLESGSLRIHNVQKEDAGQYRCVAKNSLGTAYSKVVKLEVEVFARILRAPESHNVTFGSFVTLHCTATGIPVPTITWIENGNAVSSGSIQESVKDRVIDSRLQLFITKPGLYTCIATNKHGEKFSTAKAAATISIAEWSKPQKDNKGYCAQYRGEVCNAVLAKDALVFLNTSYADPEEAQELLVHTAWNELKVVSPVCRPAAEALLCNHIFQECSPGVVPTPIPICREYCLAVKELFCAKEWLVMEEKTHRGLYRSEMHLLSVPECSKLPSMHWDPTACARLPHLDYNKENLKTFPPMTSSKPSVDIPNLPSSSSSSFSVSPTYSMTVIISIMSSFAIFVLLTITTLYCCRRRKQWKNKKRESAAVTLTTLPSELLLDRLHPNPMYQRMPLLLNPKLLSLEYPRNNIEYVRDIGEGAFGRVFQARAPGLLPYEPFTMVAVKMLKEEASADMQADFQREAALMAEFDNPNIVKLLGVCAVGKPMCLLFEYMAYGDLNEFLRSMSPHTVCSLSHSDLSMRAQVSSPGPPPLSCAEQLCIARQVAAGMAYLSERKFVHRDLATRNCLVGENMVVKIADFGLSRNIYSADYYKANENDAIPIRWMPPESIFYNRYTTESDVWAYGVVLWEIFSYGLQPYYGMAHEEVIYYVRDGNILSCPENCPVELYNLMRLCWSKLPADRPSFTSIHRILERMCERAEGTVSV

[31] = target: T29, EGFR(E746-A750del) (Homo sapiens, UniProt P00533, DEL746-750)
T29 construct: purchased DiscoveRx (KINOMEscan scanMAX panel)

[32] = target: T30, PHKG1 (Homo sapiens, UniProt Q16816)
T30 construct: DNA label (for qPCR read-out); purchased DiscoveRx (KINOMEscan scanMAX service)

[33] = target: T31, TYK2(JH2domain-pseudokinase) (Homo sapiens, UniProt P29597)
T31 construct: JH2domain; DNA label (for qPCR read-out); purchased DiscoveRx (KINOMEscan scanMAX panel)

[34] = target: T32, AKT2 (Homo sapiens, UniProt P31751)
T32 construct: purchased DiscoveRx (KINOMEscan scanMAX panel, service)

[35] = target: T33, MAP3K15 (Homo sapiens, UniProt Q6ZN16)
T33 construct: DNA label (qPCR read-out); purchased DiscoverX (KINOMEscan service)
T33 sequence (Q6ZN16 whole entry): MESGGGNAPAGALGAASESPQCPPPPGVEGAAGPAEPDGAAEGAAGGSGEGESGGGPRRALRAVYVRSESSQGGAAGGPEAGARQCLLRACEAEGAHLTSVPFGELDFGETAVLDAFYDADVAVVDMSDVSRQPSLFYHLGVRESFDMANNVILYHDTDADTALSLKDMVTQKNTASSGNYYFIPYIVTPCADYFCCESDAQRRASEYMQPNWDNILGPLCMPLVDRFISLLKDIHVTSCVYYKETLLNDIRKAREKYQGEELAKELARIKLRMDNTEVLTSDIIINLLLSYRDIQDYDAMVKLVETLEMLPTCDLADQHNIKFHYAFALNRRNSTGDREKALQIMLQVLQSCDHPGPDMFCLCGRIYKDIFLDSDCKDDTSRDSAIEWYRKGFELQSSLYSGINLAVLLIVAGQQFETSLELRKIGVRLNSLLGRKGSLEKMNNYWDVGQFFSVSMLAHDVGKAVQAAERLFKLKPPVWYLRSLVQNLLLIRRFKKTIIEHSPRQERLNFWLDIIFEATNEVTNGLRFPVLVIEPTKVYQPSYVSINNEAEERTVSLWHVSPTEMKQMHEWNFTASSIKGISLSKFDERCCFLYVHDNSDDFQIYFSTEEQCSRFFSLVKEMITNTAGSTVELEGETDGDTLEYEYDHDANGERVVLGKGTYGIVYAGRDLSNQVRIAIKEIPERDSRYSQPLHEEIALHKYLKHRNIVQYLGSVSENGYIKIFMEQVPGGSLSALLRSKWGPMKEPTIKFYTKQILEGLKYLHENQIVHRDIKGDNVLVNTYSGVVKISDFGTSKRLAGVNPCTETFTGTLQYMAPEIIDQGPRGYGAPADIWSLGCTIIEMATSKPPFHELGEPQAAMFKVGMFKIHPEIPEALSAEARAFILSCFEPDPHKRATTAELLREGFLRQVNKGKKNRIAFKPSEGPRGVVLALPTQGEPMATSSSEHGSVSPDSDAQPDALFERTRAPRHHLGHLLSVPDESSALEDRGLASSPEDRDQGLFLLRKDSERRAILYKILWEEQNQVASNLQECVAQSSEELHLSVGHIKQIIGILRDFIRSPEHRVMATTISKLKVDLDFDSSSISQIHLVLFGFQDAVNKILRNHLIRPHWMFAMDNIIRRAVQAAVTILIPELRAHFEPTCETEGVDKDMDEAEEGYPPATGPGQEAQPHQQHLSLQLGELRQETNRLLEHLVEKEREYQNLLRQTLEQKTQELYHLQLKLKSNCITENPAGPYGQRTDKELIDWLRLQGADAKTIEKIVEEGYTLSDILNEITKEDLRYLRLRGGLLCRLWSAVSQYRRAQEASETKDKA

| SMILES | % Ctrl [1] [% Ctrl] | % Ctrl [2] [% Ctrl] | % Ctrl [3] [% Ctrl] | % Ctrl [4] [% Ctrl] | % Ctrl [5] [% Ctrl] | % Ctrl [6] [% Ctrl] | % Ctrl [7] [% Ctrl] | % Ctrl [8] [% Ctrl] | % Ctrl [9] [% Ctrl] | % Ctrl [10] [% Ctrl] | % Ctrl [11] [% Ctrl] | % Ctrl [12] [% Ctrl] | % Ctrl [13] [% Ctrl] | % Ctrl [14] [% Ctrl] | % Ctrl [15] [% Ctrl] | % Ctrl [16] [% Ctrl] | % Ctrl [17] [% Ctrl] | % Ctrl [18] [% Ctrl] | % Ctrl [19] [% Ctrl] | % Ctrl [20] [% Ctrl] | also measured |
| --- | --- | --- | --- | --- | --- | --- | --- | --- | --- | --- | --- | --- | --- | --- | --- | --- | --- | --- | --- | --- | --- |
| CN(C)C(=O)c1ccc(N2CCCN(c3ccnc4sc(C(N)=O)c(N)c34)CC2)cc1 [15u, 3-amino-4-(4-(4-(dimethylcarbamoyl)phenyl)-1,4-diazepan-1-yl)thieno[2,3-b]pyridine-2-carboxamide] | 100 | 78 | 92 | 98 | 100 | 94 | 99 | 67 | 96 | 100 | 80 | 100 | 99 | 93 | 100 | 95 | 96 | 100 | 91 | 84 | % Ctrl [21]: 84 % Ctrl; % Ctrl [22]: 100 % Ctrl; % Ctrl [23]: 78 % Ctrl; % Ctrl [24]: 100 % Ctrl; % Ctrl [25]: 100 % Ctrl; % Ctrl [26]: 95 % Ctrl; % Ctrl [27]: 63 % Ctrl; % Ctrl [28]: 94 % Ctrl; % Ctrl [29]: 88 % Ctrl; % Ctrl [30]: 94 % Ctrl; % Ctrl [31]: 100 % Ctrl; % Ctrl [32]: 94 % Ctrl; % Ctrl [33]: 73 % Ctrl; % Ctrl [34]: 86 % Ctrl; % Ctrl [35]: 97 % Ctrl |
| [2H]C([2H])([2H])N(C(=O)c1ccc(N2CCCN(c3ccnc4sc(C(N)=O)c(N)c34)CC2)cc1)C([2H])([2H])[2H] [15u_D6, 3-amino-4-(4-(4-(bis(methyl-d3)carbamoyl)phenyl)-1,4-diazepan-1-yl)thieno[2,3-b]pyridine-2-carboxamide] | 87 | 80 | 98 | 96 | 80 | 83 | 98 | 84 | 95 | 88 | 52 | 80 | 92 | 79 | 89 | 78 | 97 | 99 | 100 | 94 | % Ctrl [21]: 56 % Ctrl; % Ctrl [22]: 100 % Ctrl; % Ctrl [23]: 92 % Ctrl; % Ctrl [24]: 92 % Ctrl; % Ctrl [25]: 76 % Ctrl; % Ctrl [26]: 92 % Ctrl; % Ctrl [27]: 100 % Ctrl; % Ctrl [28]: 95 % Ctrl; % Ctrl [29]: 83 % Ctrl; % Ctrl [30]: 82 % Ctrl; % Ctrl [31]: 100 % Ctrl; % Ctrl [32]: 97 % Ctrl; % Ctrl [33]: 59 % Ctrl; % Ctrl [34]: 99 % Ctrl; % Ctrl [35]: 92 % Ctrl |
